This is an account of results in US8168592B2 (Amgen Inc., priority 2005, dated 2012).

pIC50: −log10 of the molar value. Like-named read-outs stand apart in the source and are kept apart here. Bridge positions count the residues as written; N and C are the ends. Square brackets hold non-standard residues; d marks the D form. Peptide text beside a SMILES is read from it. Oic = O=C(O)[C@@H]1C[C@@H]2CCCC[C@@H]2N1; 1Nal = N[C@@H](Cc1cccc2ccccc12)C(=O)O; 2Nal = N[C@@H](Cc1ccc2ccccc2c1)C(=O)O; hArg = N=C(N)NCCCC[C@H](N)C(=O)O; Cit = NC(=O)NCCC[C@H](N)C(=O)O; Nle = CCCC[C@H](N)C(=O)O; PEG = not defined here; Ahx = NCCCCCC(=O)O

For this assay, the target named is T1, CGRP1 receptor (Homo sapiens, UniProt O60894+Q16602).
T1 construct: SK-N-MC cells express CRLR and RAMP1, which form CGRP1 receptor; endogenous in cells; host or cells: SK-N-MC human neuroblastoma cells
Kind of assay: in vitro CGRP1 receptor mediated cAMP assay in SK-N-MC cells. Type of assay: cell-based. In outline: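 Human SK-N-MC neuroblastoma cells, which endogenously express CRLR/RAMP1, were plated two days before assay and preincubated in plasma-free medium for 15 minutes at room temperature. Cells were then lysed for 30 minutes at 37° C, and cAMP in the lysates was quantified by competitive cAMP-AP chemiluminescent ELISA.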

[1] abbreviates: Table 2C, unconjugated peptide, read-out: Peptide IC50.

T1 sequence (Q16602 23-461): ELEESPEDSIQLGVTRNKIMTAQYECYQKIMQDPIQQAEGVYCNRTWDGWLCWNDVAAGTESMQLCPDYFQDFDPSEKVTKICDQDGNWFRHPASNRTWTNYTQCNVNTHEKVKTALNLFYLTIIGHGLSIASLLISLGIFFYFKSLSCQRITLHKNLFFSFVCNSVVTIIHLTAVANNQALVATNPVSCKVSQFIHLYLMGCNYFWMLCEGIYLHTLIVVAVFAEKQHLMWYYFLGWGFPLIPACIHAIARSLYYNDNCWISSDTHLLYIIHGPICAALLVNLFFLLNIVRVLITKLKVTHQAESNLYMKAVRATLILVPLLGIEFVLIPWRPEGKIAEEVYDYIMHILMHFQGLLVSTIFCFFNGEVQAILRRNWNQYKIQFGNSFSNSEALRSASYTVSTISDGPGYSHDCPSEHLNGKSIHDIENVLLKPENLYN
T1 sequence (O60894 27-148): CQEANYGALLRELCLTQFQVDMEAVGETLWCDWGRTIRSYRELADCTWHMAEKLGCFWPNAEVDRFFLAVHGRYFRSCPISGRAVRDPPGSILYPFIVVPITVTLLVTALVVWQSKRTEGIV

`CC(=O)N[C@@H](Cc1c[nH]c2ccccc12)C(=O)N[C@H](C(=O)N[C@H](C(=O)N[C@@H](Cc1c[nH]cn1)C(=O)N[C@@H](CCCNC(N)=O)C(=O)N[C@@H](CC(C)C)C(=O)N[C@@H](C)C(=O)NCC(=O)N[C@@H](CC(C)C)C(=O)N[C@@H](CC(C)C)C(=O)N[C@@H](CO)C(=O)N[C@@H](CCCNC(N)=O)C(=O)N[C@@H](CO)C(=O)NCC(=O)NCC(=O)N[C@H](C(=O)N[C@H](C(=O)N[C@@H](CCCCNC(=N)N)C(=O)N[C@@H](CCCCN)C(=O)N[C@@H](CC(N)=O)C(=O)N[C@@H](Cc1ccccc1)C(=O)N[C@H](C(=O)N1[C@H](C(=O)N[C@H](C(=O)N[C@@H](CC(=O)O)C(=O)N[C@H](C(=O)NCC(=O)N2CCC[C@H]2C(=O)N[C@@H](Cc2ccccc2)C(=O)N[C@@H](C)C(=O)N[C@@H](Cc2ccc3ccccc3c2)C(N)=O)C(C)C)[C@@H](C)O)C[C@@H]2CCCC[C@@H]21)C(C)C)C(C)C)C(C)C)[C@@H](C)O)C(C)C` [compound 135] (Ac-WVTH[Cit]LAGLLS[Cit]SGGVV[hArg]KNFV[Oic]TDVGPFA[2Nal]-NH2): the pIC50 (Table 2A, read-out: IC50) was 8.49. Turning to “805 (Ac-WVTHRLAGLLSRSGGVVRC(20 kDa MeO‑PEG)NFVPTDVGPFAF-NH2) [compound 805]”, where the note is “Table 2D, read-out: IC50”, the pIC50 is 8.88.

In the case of `CCCC[C@H](NC(=O)[C@@H](NC(=O)CNC(=O)CNC(=O)[C@H](CO)NC(=O)[C@H](CCCNC(N)=O)NC(=O)[C@H](CO)NC(=O)[C@H](CC(C)C)NC(=O)[C@H](CC(C)C)NC(=O)CNC(=O)[C@H](C)NC(=O)[C@H](CC(C)C)NC(=O)[C@H](CCCNC(N)=O)NC(=O)[C@H](Cc1c[nH]cn1)NC(=O)[C@@H](NC(=O)[C@@H](NC(=O)[C@H](Cc1c[nH]c2ccccc12)NC(C)=O)C(C)C)[C@@H](C)O)C(C)C)C(=O)N[C@@H](CCCNC(=N)N)C(=O)N[C@@H](CCCCN)C(=O)N[C@@H](CC(N)=O)C(=O)N[C@@H](Cc1ccccc1)C(=O)N[C@H](C(=O)N1CCC[C@H]1C(=O)N[C@H](C(=O)N[C@@H](CC(=O)O)C(=O)N[C@H](C(=O)NCC(=O)N1CCC[C@H]1C(=O)N[C@@H](Cc1ccccc1)C(=O)N[C@@H](C)C(=O)N[C@@H](Cc1ccccc1)C(N)=O)C(C)C)[C@@H](C)O)C(C)C` [compound 940] (Ac-WVTH[Cit]LAGLLS[Cit]SGGV[Nle]RKNFVPTDVGPFAF-NH2), the pIC50 under setting [1] was 8.73. “SEQ ID NO:5 (Ac-WVTHRLAGLLSRSGGVVKNNFVPTDVGPFAF-NH2)”: where the note is “cAMP assay”, the “improved potency relative to native CGRP(8-37) (SEQ ID NO:1)” value is listed as “greater than 35 fold”. Regarding “SEQ ID NO:14 (Ac-WVTHRLAGLLSRSGGVVC(PEG)NNFVPTDVGPFAF-NH2; reading uncertain)”, the “antagonist activity in cAMP assay, in words” value is reported as “little effect on the antagonist activity of the parent peptide”. For `CC(=O)N[C@@H](Cc1c[nH]c2ccccc12)C(=O)N[C@H](C(=O)N[C@H](C(=O)N[C@@H](Cc1c[nH]cn1)C(=O)N[C@@H](CCCNC(N)=O)C(=O)N[C@@H](CC(C)C)C(=O)N[C@@H](C)C(=O)NCC(=O)N[C@@H](CC(C)C)C(=O)N[C@@H](CC(C)C)C(=O)N[C@@H](CO)C(=O)N[C@@H](CCCNC(N)=O)C(=O)N[C@@H](CO)C(=O)NCC(=O)NCC(=O)N[C@H](C(=O)N[C@H](C(=O)N[C@@H](CCCCNC(=N)N)C(=O)N[C@@H](CCCCN)C(=O)N[C@@H](CC(N)=O)C(=O)N[C@@H](Cc1ccc2ccccc2c1)C(=O)N[C@H](C(=O)N1CCC[C@H]1C(=O)N[C@H](C(=O)N[C@@H](CC(=O)O)C(=O)N[C@H](C(=O)NCC(=O)N1[C@H](C(=O)N[C@@H](Cc2ccccc2)C(=O)N[C@@H](C)C(=O)N[C@@H](Cc2ccc3ccccc3c2)C(N)=O)C[C@@H]2CCCC[C@@H]21)C(C)C)[C@@H](C)O)C(C)C)C(C)C)C(C)C)[C@@H](C)O)C(C)C` [compound 138] (Ac-WVTH[Cit]LAGLLS[Cit]SGGVV[hArg]KN[2Nal]VPTDVG[Oic]FA[2Nal]-NH2), the pIC50 (Table 2A, read-out: IC50) is 8.46.

Regarding `CC(C)C[C@H](NC(=O)CNC(=O)[C@H](C)NC(=O)[C@H](CC(C)C)NC(=O)[C@H](CCCNC(=N)N)NC(=O)[C@H](Cc1c[nH]cn1)NC(=O)[C@@H](NC(=O)[C@@H](NC(=O)[C@H](Cc1c[nH]c2ccccc12)NC(=O)CCCCCNC(=O)[C@@H](N)CS)C(C)C)[C@@H](C)O)C(=O)N[C@@H](CC(C)C)C(=O)N[C@@H](CO)C(=O)N[C@@H](CCCNC(=N)N)C(=O)N[C@@H](CO)C(=O)NCC(=O)NCC(=O)N[C@H](C(=O)N[C@H](C(=O)N[C@@H](CCCNC(=N)N)C(=O)N[C@@H](CCCCN)C(=O)N[C@@H](CC(N)=O)C(=O)N[C@@H](Cc1ccccc1)C(=O)N[C@H](C(=O)N1CCC[C@H]1C(=O)N[C@H](C(=O)N[C@@H](CC(=O)O)C(=O)N[C@H](C(=O)NCC(=O)N1CCC[C@H]1C(=O)N[C@@H](Cc1ccccc1)C(=O)N[C@@H](C)C(=O)N[C@@H](Cc1ccccc1)C(N)=O)C(C)C)[C@@H](C)O)C(C)C)C(C)C)C(C)C` [compound 916] (H-C[Ahx]WVTHRLAGLLSRSGGVVRKNFVPTDVGPFAF-NH2), the pIC50 under setting [1] is 8.74. With “SEQ ID NO:30 (WVTHRLAGLLSXSGGVVRKNFVPTDVGPFAF; CGRP peptide; MOD_RES (1)..(1): …ON; MISC_FEATURE (12)..(12): xaa=citrulline; MISC_FEATURE (19)..(19): PEGylated; MOD_RES (31)..(31): AMIDATION)”, the “antagonist activity in cAMP assay, in words” value was “relatively minor loss of in vitro antagonist activity”. For the compound `CC(=O)N[C@@H](Cc1c[nH]c2ccccc12)C(=O)N[C@H](C(=O)N[C@H](C(=O)N[C@@H](Cc1c[nH]cn1)C(=O)N[C@@H](CCCNC(N)=O)C(=O)N[C@@H](CC(C)C)C(=O)N[C@@H](C)C(=O)NCC(=O)N[C@H]1CCC(=O)NCCCC[C@@H](C(=O)NCC(=O)NCC(=O)N[C@H](C(=O)N[C@H](C(=O)N[C@@H](CCCCNC(=N)N)C(=O)N[C@@H](CCCCN)C(=O)N[C@@H](CC(N)=O)C(=O)N[C@@H](Cc2ccccc2)C(=O)N[C@H](C(=O)N2CCC[C@H]2C(=O)N[C@H](C(=O)N[C@@H](CC(=O)O)C(=O)N[C@H](C(=O)NCC(=O)N2[C@H](C(=O)N[C@@H](Cc3cccc4ccccc34)C(=O)N[C@@H](C)C(=O)N[C@@H](Cc3ccccc3)C(N)=O)C[C@@H]3CCCC[C@@H]32)C(C)C)[C@@H](C)O)C(C)C)C(C)C)C(C)C)NC(=O)[C@H](CCCCNC(=N)N)NC(=O)[C@H](CO)NC(=O)[C@H](CC(C)C)NC1=O)[C@@H](C)O)C(C)C` [compound 944] (Ac-WVTH[Cit]LAGELS[hArg]KGGVV[hArg]KNFVPTDVG[Oic][1Nal]AF-NH2; lactam 9-13), the pIC50 under setting [1] is 9.07.

With `CC(=O)N[C@@H](Cc1c[nH]c2ccccc12)C(=O)N[C@H](C(=O)N[C@H](C(=O)N[C@@H](Cc1c[nH]cn1)C(=O)N[C@@H](CCCNC(N)=O)C(=O)N[C@@H](CC(C)C)C(=O)N[C@@H](C)C(=O)NCC(=O)N[C@@H](CC(C)C)C(=O)N[C@@H](CC(C)C)C(=O)N[C@@H](CO)C(=O)N[C@@H](CCCNC(N)=O)C(=O)N[C@@H](CO)C(=O)NCC(=O)NCC(=O)N[C@H](C(=O)N[C@H](C(=O)N[C@@H](CCCNC(=N)N)C(=O)N[C@@H](CCCCN)C(=O)N[C@@H](CC(N)=O)C(=O)N[C@@H](Cc1ccccc1)C(=O)N[C@H](C(=O)N1CCC[C@H]1C(=O)N[C@H](C(=O)N[C@@H](CC(=O)O)C(=O)N[C@H](C(=O)NCC(=O)N1CCC[C@H]1C(=O)N[C@@H](Cc1ccccc1)C(=O)N[C@@H](C)C(=O)N[C@@H](Cc1ccc(I)cc1)C(N)=O)C(C)C)[C@@H](C)O)C(C)C)C(C)C)C(C)C)[C@@H](C)O)C(C)C` [compound 923], the pIC50 under setting [1] is 8.65. Turning to `CC(=O)N[C@@H](Cc1c[nH]c2ccccc12)C(=O)N[C@H](C(=O)N[C@H](C(=O)N[C@@H](Cc1c[nH]cn1)C(=O)N[C@@H](CCCNC(=N)N)C(=O)N[C@@H](CC(C)C)C(=O)N[C@@H](C)C(=O)NCC(=O)N[C@@H](CC(C)C)C(=O)N[C@@H](CC(C)C)C(=O)N[C@@H](CO)C(=O)N[C@@H](CCCCNC(=N)N)C(=O)N[C@@H](CO)C(=O)NCC(=O)NCC(=O)N[C@H](C(=O)N[C@H](C(=O)N[C@@H](CCCNC(=N)N)C(=O)N[C@@H](CCCCN)C(=O)N[C@@H](CC(N)=O)C(=O)N[C@@H](Cc1ccccc1)C(=O)N[C@H](C(=O)N1CCC[C@H]1C(=O)N[C@H](C(=O)N[C@@H](CC(=O)O)C(=O)N[C@H](C(=O)NCC(=O)N1CCC[C@H]1C(=O)N[C@@H](Cc1ccccc1)C(=O)N[C@@H](C)C(=O)N[C@@H](Cc1ccccc1)C(N)=O)C(C)C)[C@@H](C)O)C(C)C)C(C)C)C(C)C)[C@@H](C)O)C(C)C` [compound 864], under setting [1], the pIC50 is 9.24. For `CC(=O)N[C@@H](Cc1c[nH]c2ccccc12)C(=O)N[C@H](C(=O)N[C@H]1CCC(=O)NCCCC[C@@H](C(=O)NCC(=O)N[C@@H](CC(C)C)C(=O)N[C@@H](CC(C)C)C(=O)N[C@@H](CO)C(=O)N[C@@H](CCCNC(N)=O)C(=O)N[C@@H](CO)C(=O)NCC(=O)NCC(=O)N[C@H](C(=O)N[C@H](C(=O)N[C@@H](CCCNC(=N)N)C(=O)N[C@@H](CCCCN)C(=O)N[C@@H](CC(N)=O)C(=O)N[C@@H](Cc2ccccc2)C(=O)N[C@H](C(=O)N2CCC[C@H]2C(=O)N[C@H](C(=O)N[C@@H](CC(=O)O)C(=O)N[C@H](C(=O)NCC(=O)N2CCC[C@H]2C(=O)N[C@@H](Cc2ccccc2)C(=O)N[C@@H](C)C(=O)N[C@@H](Cc2ccccc2)C(N)=O)C(C)C)[C@@H](C)O)C(C)C)C(C)C)C(C)C)NC(=O)[C@H](CC(C)C)NC(=O)[C@H](CCCNC(=N)N)NC(=O)[C@H](Cc2c[nH]cn2)NC1=O)C(C)C` [compound 893] (Ac-WVEHRLKGLLS[Cit]SGGVVRKNFVPTDVGPFAF-NH2; lactam 3-7), the negative logarithm of the IC50 (pIC50) (Peptide IC50, Table 2C, unconjugated peptide) is 8.79.
